This note sets out measurements from patent publication US8362249B2, “CXCR3 receptor antagonists” (Boehringer Ingelheim International GmbH, priority 2009, dated 2013).

The term IC50 denotes the concentration that gives 50% inhibition.

CXCR3, sequence (A0A2K5UV19 entry or part of it): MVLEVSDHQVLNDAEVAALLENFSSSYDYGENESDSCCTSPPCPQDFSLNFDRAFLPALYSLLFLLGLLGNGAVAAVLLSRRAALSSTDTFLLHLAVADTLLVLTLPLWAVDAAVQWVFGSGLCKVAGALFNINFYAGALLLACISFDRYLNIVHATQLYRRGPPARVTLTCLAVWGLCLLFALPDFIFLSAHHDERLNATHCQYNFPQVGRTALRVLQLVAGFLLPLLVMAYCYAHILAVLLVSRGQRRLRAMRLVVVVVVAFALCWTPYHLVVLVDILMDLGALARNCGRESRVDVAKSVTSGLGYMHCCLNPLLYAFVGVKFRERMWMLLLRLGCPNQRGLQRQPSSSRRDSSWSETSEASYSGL

The test concerns the target CXCR3 (Macaca fascicularis, UniProt A0A2K5UV19). The experiment in a line: functional cellular assay measuring calcium flux in CXCR3 transfected cells (block of CXCR3/IP-10 interaction). The test is classed as cell-based. The conditions noted are these: IP-10 induced intracellular calcium flux; Cyno-CHO cells stably expressing recombinant CXCR3 and G-alpha-16. In outline: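 Cyno-CHO cells stably co-expressing recombinant CXCR3 and G-alpha-16, loaded with Ca-4 dye (HBSS, 10 mM HEPES pH 7.4, 2 mM probenecid) for 1 h at 37 °C. Compound (10 microM final) preincubated 15 min at room temperature, then IP-10 added at EC80. Intracellular calcium flux read by fluorescence (ex 480/em 540 nm).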
For `COc1cc(NC(=O)c2ccccc2N2CCN(C(=O)CN3CCCCC3=O)CC2)ccn1` [N-(2-Methoxy-pyridin-4-yl)-2-{4-[2-(2-oxo-piperidin-1-yl)-acetyl]-piperazin-1-yl}-benzamide], the IC50 amounted to 4.4 nM.
The same measure for `COc1cc(NC(=O)c2ccccc2N2CCN(C(=O)CN3CCCCC3=O)[C@@H](C)C2)ccn1` [N-(2-Methoxy-pyridin-4-yl)-2-{(S)-3-methyl-4-[2-(2-oxo-piperidin-1-yl)-acetyl]-piperazin-1-yl}-benzamide]: 13 nM.
`Cc1cc(C)n(CC(=O)N2CCN(c3ccccc3C(=O)Nc3ccnc(C(C)(C)C)c3)CC2)n1` [N-(2-tert-Butyl-pyridin-4-yl)-2-{4-[2-(3,5-dimethyl-pyrazol-1-yl)-acetyl]-piperazin-1-yl}-benzamide]: the IC50 turned out to be 8.5 nM.
The same measure for `Cc1cc(C)n(CC(=O)N2CCN(c3ccccc3NC(=O)c3cccc(C(F)(F)F)c3)CC2)n1` [N-(2-{4-[2-(3,5-Dimethyl-pyrazol-1-yl)-acetyl]-piperazin-1-yl}-phenyl)-3-trifluoromethyl-benzamide]: 7.4 nM; for `Cc1cc(C)n(CC(=O)N2CCN(c3ccccc3NC(=O)c3ccc(Oc4ccccc4)nc3)CC2)n1` [N-(2-{4-[2-(3,5-Dimethyl-pyrazol-1-yl)-acetyl]-piperazin-1-yl}-phenyl)-6-phenoxy-nicotinamide]: 9.1 nM.
The same measure for `Cc1cc(C)n(CC(=O)N2CCN(c3ccccc3NC(=O)c3ccccc3)CC2)n1` [N-(2-{4-[2-(3,5-Dimethyl-pyrazol-1-yl)-acetyl]-piperazin-1-yl}-phenyl)-benzamide]: 6.6 nM; for `Cc1cc(C)n(CC(=O)N2CCN(c3ccccc3NC(=O)c3ccncc3)CC2)n1` [N-(2-{4-[2-(3,5-Dimethyl-pyrazol-1-yl)-acetyl]-piperazin-1-yl}-phenyl)-isonicotinamide]: 7.6 nM.
Consider `Cc1cc(C)n(CC(=O)N2CCN(c3ccccc3NC(=O)c3cccnc3)CC2)n1` [N-(2-{4-[2-(3,5-Dimethyl-pyrazol-1-yl)-acetyl]-piperazin-1-yl}-phenyl)-nicotinamide], for which the half-inhibitory concentration (IC50) turned out to be 15 nM.
Regarding `COc1ccc(C(=O)NCC(=O)N2CCN(c3ncc(Cl)cc3NC(=O)c3cccc(C(F)(F)F)c3)CC2)cc1OC` [N-(2-{4-[5-Chloro-3-(3-trifluoromethyl-benzoylamino)-pyridin-2-yl]-piperazin-1-yl}-2-oxo-ethyl)-3,4-dimethoxy-benzamide], the IC50 was 8.8 nM.
The same measure for `Cc1cc(C)n(CC(=O)N2CCN(c3ccccc3C(=O)Nc3cccc(Cl)c3)CC2)n1` [N-(3-Chloro-phenyl)-2-{4-[2-(3,5-dimethyl-pyrazol-1-yl)-acetyl]-piperazin-1-yl}-benzamide]: 3.3 nM.
The same measure for `Cc1cc(C)n(CC(=O)N2CCN(c3ccccc3C(=O)Nc3cccc(C#N)c3)CC2)n1` [N-(3-Cyano-phenyl)-2-{4-[2-(3,5-dimethyl-pyrazol-1-yl)-acetyl]-piperazin-1-yl}-benzamide]: 4.5 nM.
The same measure for `Cc1cc(C)n(CC(=O)N2CCN(c3ccccc3C(=O)Nc3cc(C4CCCCC4)no3)CC2)n1` [N-(3-Cyclohexyl-isoxazol-5-yl)-2-{4-[2-(3,5-dimethyl-pyrazol-1-yl)-acetyl]-piperazin-1-yl}-benzamide]: 8.3 nM; for `Cc1cc(C)n(CC(=O)N2CCN(c3ccccc3C(=O)Nc3cc(C(C)(C)C)ns3)CC2)n1` [N-(3-tert-Butyl-isothiazol-5-yl)-2-{4-[2-(3,5-dimethyl-pyrazol-1-yl)-acetyl]-piperazin-1-yl}-benzamide]: 10 nM; for `Cc1cc(C)n(CC(=O)N2CCN(c3ccccc3C(=O)Nc3cc(C(C)(C)C)no3)CC2)n1` [N-(3-tert-Butyl-isoxazol-5-yl)-2-{4-[2-(3,5-dimethyl-pyrazol-1-yl)-acetyl]-piperazin-1-yl}-benzamide]: 8.9 nM.
As to `Cc1cc(C)n(CC(=O)N2CCN(c3ccccc3C(=O)Nc3nc4c(Cl)cccc4s3)CC2)n1` [N-(4-Chloro-benzothiazol-2-yl)-2-{4-[2-(3,5-dimethyl-pyrazol-1-yl)-acetyl]-piperazin-1-yl}-benzamide], the IC50 was found to be 13 nM.
The same measure for `CS(=O)(=O)c1ccc(NC(=O)c2ccccc2N2CCN(C(=O)Cn3ccc4cccnc43)CC2)cc1` [N-(4-Methanesulfonyl-phenyl)-2-[4-(2-pyrrolo[2,3-b]pyridin-1-yl-acetyl)-piperazin-1-yl]-benzamide]: 7.4 nM; for `Cc1cc(C)n(CC(=O)N2CCN(c3ccccc3C(=O)Nc3nc(C(C)(C)C)c(C#N)s3)CC2)n1` [N-(4-tert-Butyl-5-cyano-thiazol-2-yl)-2-{4-[2-(3,5-dimethyl-pyrazol-1-yl)-acetyl]-piperazin-1-yl}-benzamide]: 18.5 nM; for `Cc1cc(C)n(CC(=O)N2CCN(c3ccccc3C(=O)Nc3nc(C(C)(C)C)cs3)CC2)n1` [N-(4-tert-Butyl-thiazol-2-yl)-2-{4-[2-(3,5-dimethyl-pyrazol-1-yl)-acetyl]-piperazin-1-yl}-benzamide]: 15 nM.
The same measure for `Cc1cc(C)n(CC(=O)N2CCC(c3ccc(Cl)cc3NC(=O)c3ccccc3)CC2)n1` [N-(5-Chloro-2-{1-[2-(3,5-dimethyl-pyrazol-1-yl)-acetyl]-piperidin-4-yl}-phenyl)-benzamide]: 18.5 nM.
The same measure for `Cc1cc(C)n(CC(=O)N2CCN(c3ncc(Cl)cc3NC(=O)c3cccc(C(F)(F)F)c3)CC2)n1` [N-(5-Chloro-2-{4-[2-(3,5-dimethyl-pyrazol-1-yl)-acetyl]-piperazin-1-yl}-pyridin-3-yl)-3-trifluoromethyl-benzamide]: 10.6 nM.
As to `Cc1cc(C)n(CC(=O)N2CCN(c3ncc(Cl)cc3NC(=O)c3ccc(S(C)(=O)=O)cc3)CC2)n1` [N-(5-Chloro-2-{4-[2-(3,5-dimethyl-pyrazol-1-yl)-acetyl]-piperazin-1-yl}-pyridin-3-yl)-4-methanesulfonyl-benzamide], the IC50 is 23 nM.
The same measure for `Cc1cc(C)n(CC(=O)N2CCN(c3ccccc3C(=O)Nc3nc4cc(Cl)ccc4s3)CC2)n1` [N-(5-Chloro-benzothiazol-2-yl)-2-{4-[2-(3,5-dimethyl-pyrazol-1-yl)-acetyl]-piperazin-1-yl}-benzamide]: 17 nM; for `Cc1cc(C)n(CC(=O)N2CCN(c3ccccc3C(=O)Nc3cncc(Cl)c3)CC2)n1` [N-(5-Chloro-pyridin-3-yl)-2-{4-[2-(3,5-dimethyl-pyrazol-1-yl)-acetyl]-piperazin-1-yl}-benzamide]: 7.6 nM.
The same measure for `O=C(Nc1cncc(F)c1)c1ccccc1N1CCN(C(=O)Cn2ccc3ccncc32)CC1` [N-(5-Fluoro-pyridin-3-yl)-2-[4-(2-pyrrolo[2,3-c]pyridin-1-yl-acetyl)-piperazin-1-yl]-benzamide]: 1.3 nM; for `CN1CCc2nc(NC(=O)c3ccccc3N3CCN(C(=O)CN4Cc5ccccc5C4=O)CC3)sc2C1` [N-(5-Methyl-4,5,6,7-tetrahydro-thiazolo[5,4-c]pyridin-2-yl)-2-{4-[2-(1-oxo-1,3-dihydro-isoindol-2-yl)-acetyl]-piperazin-1-yl}-benzamide]: 2.9 nM; for `Cc1cc(C)n(CC(=O)N2CCN(c3ccccc3C(=O)Nc3cc(C(C)(C)C)n[nH]3)CC2)n1` [N-(5-tert-Butyl-2H-pyrazol-3-yl)-2-{4-[2-(3,5-dimethyl-pyrazol-1-yl)-acetyl]-piperazin-1-yl}-benzamide]: 4.8 nM.
The same measure for `Cc1cc(C)n(CC(=O)N2CCN(c3ccccc3C(=O)Nc3nc(C)c(C(C)(C)C)s3)CC2)n1` [N-(5-tert-Butyl-4-methyl-thiazol-2-yl)-2-{4-[2-(3,5-dimethyl-pyrazol-1-yl)-acetyl]-piperazin-1-yl}-benzamide]: 11 nM.
For the compound `Cc1cc(C)n(CC(=O)N2CCN(c3ccccc3C(=O)Nc3nnc(C(C)(C)C)s3)CC2)n1` [N-(5-tert-Butyl-[1,3,4]thiadiazol-2-yl)-2-{4-[2-(3,5-dimethyl-pyrazol-1-yl)-acetyl]-piperazin-1-yl}-benzamide], the IC50 was 9.7 nM.
The same measure for `Cc1cc(C)n(CC(=O)N2CCN(c3ccccc3C(=O)Nc3nc4c(s3)COCC4)CC2)n1` [N-(6,7-Dihydro-4H-pyrano[4,3-d]thiazol-2-yl)-2-{4-[2-(3,5-dimethyl-pyrazol-1-yl)-acetyl]-piperazin-1-yl}-benzamide]: 8.6 nM.
In the case of `CC(=O)Nc1ccc(NC(=O)c2ccccc2N2CCN(C(=O)Cn3nc(C)cc3C)CC2)cn1` [N-(6-Acetylamino-pyridin-3-yl)-2-{4-[2-(3,5-dimethyl-pyrazol-1-yl)-acetyl]-piperazin-1-yl}-benzamide], the IC50 stood at 10.2 nM.
Turning to `Cc1cc(C)n(CC(=O)N2CCN(c3ccccc3C(=O)Nc3ccc(Br)nc3)CC2)n1` [N-(6-Bromo-pyridin-3-yl)-2-{4-[2-(3,5-dimethyl-pyrazol-1-yl)-acetyl]-piperazin-1-yl}-benzamide], the IC50 was determined as 8.5 nM.
The same measure for `Cc1cc(C)n(CC(=O)N2CCN(c3ccccc3C(=O)Nc3ccc(Cl)nc3)CC2)n1` [N-(6-Chloro-pyridin-3-yl)-2-{4-[2-(3,5-dimethyl-pyrazol-1-yl)-acetyl]-piperazin-1-yl}-benzamide]: 7.2 nM.
The same measure for `N#Cc1ccc(NC(=O)c2ccccc2N2CCN(C(=O)Cn3ccc4cccnc43)CC2)cn1` [N-(6-Cyano-pyridin-3-yl)-2-[4-(2-pyrrolo[2,3-b]pyridin-1-yl-acetyl)-piperazin-1-yl]-benzamide]: 6.3 nM.
The same measure for `Cc1cc(C)n(CC(=O)N2CCN(c3ccccc3C(=O)Nc3ccc(C#N)nc3)CC2)n1` [N-(6-Cyano-pyridin-3-yl)-2-{4-[2-(3,5-dimethyl-pyrazol-1-yl)-acetyl]-piperazin-1-yl}-benzamide]: 4.2 nM.
For the compound `COc1ccc(NC(=O)c2ccccc2N2CCN(C(=O)Cn3ccc4cccnc43)CC2)cn1` [N-(6-Methoxy-pyridin-3-yl)-2-[4-(2-pyrrolo[2,3-b]pyridin-1-yl-acetyl)-piperazin-1-yl]-benzamide], the IC50 came out at 5.7 nM.
